Measurements taken from EP4203925B1, “CANNABINOID COMBINATIONS AND THEIR USE IN THE TREATMENT OF CANCER” (priority 2020, dated 2022).
Where “and” joins values, the source holds several entries; their conditions need not be identical. Identical values can stand only once. Entries after “also recorded” stand apart in the source; their conditions may differ. Like-named read-outs stand apart in the source and are kept apart here.

Columns and labels:
[1] = tested on: MCF-7 cells; experiment: MTT cell viability assay with Chou-Talalay median-effect / combination index analysis; conditions: for IC50 / IC90 / IC75: Homo sapiens; for IC90: read-out: Dm (µM) IC90; for IC75: read-out: Dm (µM) IC75
[2] = tested on: breast cancer cell lines; experiment: MTT cell viability / checkerboard assay, cell line not given; conditions: Homo sapiens, read-out: IC50 values
[3] = tested on: MDA-MB-231 cells; experiment: MTT cell viability assay with Chou-Talalay median-effect / combination index analysis; conditions: for IC50 / IC90 / IC75: Homo sapiens, MDA-MB-231, 48 h; for IC50: read-out: Dm (µM) IC50; for IC90: read-out: Dm (µM) IC90; for IC75: read-out: Dm (µM) IC75
[4] = tested on: white blood cells; experiment: Toxicity screening in white blood cells (MTT); type: cell-based, human; conditions: B6 (42 µM), C6 (43 µM), 24 hours
Method: MTT solution (5mg/ml, 20 µl) was added to existing media in the wells and the cells were incubated for 3 hours at 37 °C. After the 3 hours, the plate was centrifuged at 1000 x g for 10 minutes, the spent media removed and the formazan crystals solubilised in 100 µl DMSO. The plate was then shaken for 1 minute and the absorbance read at 550nm.
Blood samples were obtained from healthy volunteers (n=3, 16 ml/person) in ethylenediaminetetraacetic acid (EDTA) vacutainers. The samples were centrifuged at 500 x g for 10 minutes, the plasma (top layer) removed and the buffy coat collected. The buffy coat was then centrifuged at 2000 x g for 10 minutes to remove residual plasma while retaining the buffy coat. Lysis buffer (0.16M NH4Cl, 0.01 M KHCO3, 6 mM EDTA; pH 7.3) was added to the buffy coat in a 9:1 ratio (lysis buffer:buffy coat) and the mixture vortexed for 10 seconds, followed by a 10 minute incubation at room temperature. The sample was then centrifuged at 2000 x g for 10 minutes and the pellet retained (containing white blood cells). […] White blood cells were stained with trypan blue and counted using a haemocytometer. […]
The potential toxicity induced by the selected treatments (B6 and C6) were evaluated in two ways: 1) screening in the normal breast cells, MCF-10A and 2) determining the cytotoxicity to white blood cells isolated from human volunteers (Figure 14).

[5] = MCF7, 48 h, read-out: Dm (µM) IC50
[6] = MCF7, read-out: Required concentration of cannabinoids: Individual

Structure (SMILES) | Dm (µM) IC75 [1] [µM] | Required concentration of cannabinoids: Individual [1] | IC50 [1, 5] [µM] | IC90 ([1]; MCF7, 48 h) [µM] | IC50 [1, 6] [µM] | IC50 [2] [µM] | Dm (µM) IC75 [3] [µM] | IC50 [3] [µM] | IC90 [3] [µM] | IC75 ([1]; MCF7, 48 h) [µM] | IC75 [3] [µM] | growth inhibition / cytotoxicity [4]
CCCCCc1cc(O)c2c(c1)OC(C)(C)[C@@H]1CCC(C)=C[C@@H]21 [THC, Δ^9-tetrahydrocannabinol] | 43.11 | 39.23 µM (2×) and 47.24 µM (2×) | 32.2 | 57.7 | 32.6 | 32 | 38.33 | 30 | 49 |  |  | 
CCCCCc1cc(O)c(C/C=C(\C)CCC=C(C)C)c(O)c1 [CBG, cannabigerol] |  |  | 26.9 | 40.5 | 26.9 | 30 |  | 24.9 | 31.8 | 33 | 28.1 | 
CC[C@@]1(O)C(=O)OCc2c1cc1n(c2=O)Cc2cc3ccccc3nc2-1 [camptothecin] |  |  |  |  |  |  |  |  |  |  |  | lack of growth inhibition; also recorded: limited cytotoxicity
C=C(C)[C@@H]1CCC(C)=C[C@H]1c1c(O)cc(CCCCC)cc1O [CBD, cannabidiol] |  |  | 20.6 | 44.4 | 20.6 | 19 |  | 14.7 | 47.4 | 30.2 | 26.4 | 
CCCCCc1cc(O)c2c(c1)OC(C)(C)c1ccc(C)cc1-2 [CBN, cannabinol] |  |  | 23.4 | 30.2 | 23.4 | 25 |  | 22.5 | 29.3 | 26.6 | 25.7 | 
